According to PMC3224213, “Bacterial membrane activity of α-peptide/β-peptoid chimeras: Influence of amino acid composition and chain length on the activity against different bacterial strains” (BMC Microbiology, 2011):

Experiments:
[1] = tested on: twelve food-borne and clinical bacterial strains; assay type: cell-based; conditions: ratio of MIC values, Table 2
Procedure: Initial activity experiments were carried out with twelve strains from seven bacterial species representing common laboratory strains and clinical strains derived from both food-borne and nosocomial infections (Table 1). Stock cultures were stored at -80°C in 4% (w/v) glycerol, 0.5% (w/v) glucose, 2% (w/v) skimmed milk powder and 3% (w/v) tryptone soy powder. All experiments were carried out with bacteria incubated for one night (i.e. approximately 18 hours) at 37°C. Experiments were performed in cation-adjusted Mueller Hinton II broth (MHB) (Becton Dickinson 212322) adjusted to pH 7.4 or Tryptone Soy Broth (TSB) (Oxoid CM0129) for the ATP leakage assays. Brain Heart Infusion (BHI) (CM1135) with agar (VWR 20768.292) 1.5% as gelling agent was used throughout for colony plating.
The Minimum Inhibitory Concentration (MIC) of the chimeras was determined against the spectrum of bacteria using the microdilution method according to guidelines of the Clinical and Laboratory Standards Institute (CLSI). Chimera 1:2 serial dilutions were prepared from 1,024 μg/mL stock solutions to give a final range of 512-0.5 μg/mL in the wells. This corresponds to a final range of 144 to 0.14 μM for the heaviest chimera (i.e. chimera 4c) and of 282 to 0.27 μM for the lightest chimera (i.e. chimera 4a). Colonies grown overnight (i.e. approximately 18 hours) on BHI agar were suspended in 0.9% saline to give a turbidity of 0.13 at OD546 (approximately 1 × 10^8 CFU/mL), and then diluted in MHB pH 7.4 to a final concentration of 5 × 10^5 CFU/mL in each well. Following CLSI guidelines the media for testing of Listeria monocytogenes strains were supplemented with 2.5% lysed horse blood. Polypropylene plates (Nunc 442587) were used to minimize peptide binding and incubation time was 18-20 hours at 37°C. MIC was determined in a minimum of two technical replicates as the lowest concentration of the peptide analogue where no visible growth was found. The Minimum Bactericidal Concentration (MBC) was determined by plating 10 μL of the suspension from the first three wells without growth on BHI agar and incubating these for 24 hours at 37°C. MBC was the lowest concentration at which a 99.9% reduction in CFU/mL was observed. Activity is expressed in μmol/L to enable a direct comparison of analogues with different length (= size).

[2] = tested on: S. aureus; assay: ATP leakage bioluminescence assay; assay type: cell-based, Staphylococcus aureus; conditions: 1000 μg/mL chimera
Procedure: (§1) Pore formation as caused by peptide addition was determined by measuring ATP leakage from the bacterial cell using a bioluminescence assay. The assay was used to estimate differences between sub-typical chimeras 1, 2 and 3 on S. aureus and S. marcescens and to evaluate the effect of chain length of mixed type chimeras 4a, 4b and 4c on S. aureus. In brief, bacteria were grown in TSB at 37°C for 24 hours and then re-inoculated in TSB at 37°C for 6-8 hours until an absorbance at 546 nm of 2.5 for S. aureus and 2.0 for S. marcescens and then harvested (10 min at 2,000 × g). The bacteria were grown to a high absorbance since a high concentration of bacteria was necessary in order to get a measurable response in the ATP leakage assay. Cells were washed once in 50 mM potassium phosphate buffer (pH 7.0) and once in 50 mM HEPES buffer (pH 7.0), before the pellet was resuspended in HEPES buffer to an OD546 ~ 10, and then stored on ice. Before chimera addition bacteria were pre-incubated with 0.2% (w/v) glucose to energize the cells. In general a chimera dose of 1000 μg/mL (corresponding to 280-552 μM for all chimeras) was used for all assays; however, for determining dose response curves additional doses of 100 (28-55 μM), 250 (71-137 μM) and 500 (140-276 μM) μg/mL were tested, and only the immediate release was noted. Total ATP and extracellular ATP were determined with a luminometer […]. Intracellular volumes of S. aureus and S. marcescens (0.85 μm^3 and 1.7 μm^3, respectively) were subtracted from the total volume before calculating the extracellular ATP concentration; the intracellular ATP concentration could then be calculated from this and the total ATP. ATP leakage kinetics was determined on a bacterial suspension prepared as above. Samples were taken at time 0, 5, 10, 20, 30 and 60 minutes and viable counts determined. Both the ATP leakage assay and killing kinetics performed under the same assay conditions were performed in two independent experiments.

[3] = tested on: S. marcescens; assay: ATP leakage bioluminescence assay; assay type: cell-based, Serratia marcescens; conditions: 1000 μg/mL chimera
Procedure: as §1

[4] = set-up: method as in PMID 18675778; conditions: unilamellar liposomes mimicking human cell membranes; ref [24]; cited from earlier work

For `CC(=O)N[C@@H](CCCCN)C(=O)N(CCC(=O)N[C@@H](CCCCN)C(=O)N(CCC(=O)N[C@@H](CCCCN)C(=O)N(CCC(=O)N[C@@H](CCCCN)C(=O)N(CCC(=O)N[C@@H](CCCCN)C(=O)N(CCC(=O)N[C@@H](CCCCN)C(=O)N(CCC(=O)N[C@@H](CCCCN)C(=O)N(CCC(=O)N[C@@H](CCCCN)C(=O)N(CCC(N)=O)[C@@H](C)c1ccccc1)[C@@H](C)c1ccccc1)[C@@H](C)c1ccccc1)[C@@H](C)c1ccccc1)[C@@H](C)c1ccccc1)[C@@H](C)c1ccccc1)[C@@H](C)c1ccccc1)[C@@H](C)c1ccccc1` [Chimera 3], the “lower activity compared to chimera 2 against E.coli” value [1] was 2-7 fold, the “lower activity compared to chimera 2 against S. aureus and K. pneumoniae” value [1] was 6-13 fold and the “ATP leakage (in words)” value [2] was “caused leakage of ATP”. The “ATP leakage (in words)” value [3] was “caused leakage of ATP” and the “ability to induce calcein leakage” value [4] was “positive response”.
